In PubChem BioAssay (NCI):
Several values for one entry are separate records, joined by “and”; a condition that tells them apart may be missing. Identical values can stand only once.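 Cultured in 96-well plates, cells were exposed to test compound for 48 hours across five concentrations. GI50 marks 50% less growth. The concentration for full growth arrest is given as TGI.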

What was measured:
Experiment in all cases: growth of human tumour cells (NCI), 48 h
HS 578T breast = tested on: HS 578T breast
OVCAR-3 ovarian = tested on: OVCAR-3 ovarian
SK-MEL-28 melanoma = tested on: SK-MEL-28 melanoma
SN12C renal = tested on: SN12C renal
IGROV1 ovarian = tested on: IGROV1 ovarian
COLO 205 colon = tested on: COLO 205 colon
SR leukemia = tested on: SR leukemia

Structure (SMILES)	GI50 (HS 578T breast)	TGI (HS 578T breast)	GI50 (OVCAR-3 ovarian)	TGI (OVCAR-3 ovarian)	GI50 (SK-MEL-28 melanoma)	TGI (SK-MEL-28 melanoma)	GI50 (SN12C renal)	TGI (SN12C renal)	GI50 (IGROV1 ovarian)	TGI (IGROV1 ovarian)	GI50 (COLO 205 colon)	TGI (COLO 205 colon)	GI50 (SR leukemia)	TGI (SR leukemia)
O=C(Nc1ccc(-n2cc(-c3ccncc3)c(-c3ccc(Cl)c(O)c3)n2)cc1)Nc1ccc(Cl)c(C(F)(F)F)c1	1.39 µM	4.43 µM	1480 nM	3.11 µM	1.63 µM	3.45 µM	1590 nM	3.86 µM	2.29 µM	4.96 µM	1680 nM	3.7 µM	–	–
Oc1cn(-c2ccc(Cl)cc2)nc1-c1n[nH]c(=S)n1C1CCCCC1	0.28 µM	–	< 45.6 nM	0.424 µM	0.639 µM	> 100 µM	2430 nM	> 100 µM	24.2 µM	> 100 µM	64800 nM	> 100 µM	< 41.3 nM	> 100 µM
C=C1C(=O)O[C@H]2/C=C(/C)C3=CC(=O)[C@@](C)(C[C@@H](OC(=O)/C(C)=C\C)C12)O3 (stereo not given in full)	–	57.1 µM	1240 nM	5.04 µM	–	–	–	3.37 µM	–	4.97 µM	–	–	–	–
C[C@]12CC[C@H](O)C[C@H]1CC[C@@H]1[C@@H]2CC[C@]2(C)[C@@H](C3=CC(=O)OC3)CC[C@]12O	–	> 100 µM	–	0.204 µM	–	2.01 µM	–	0.327 µM	–	2.82 µM	–	2.32 µM	–	–
CN(CCCNC(=O)Cc1ccc2ccc3cccc4ccc1c2c34)CCCNc1cc(-c2ccc3ccccc3c2)nc2ccccc12	1.66 µM	3.59 µM	1760 nM	3.29 µM	1.91 µM	3.32 µM	1680 nM	3.29 µM	1.7 µM	3.58 µM	1420 nM	2.83 µM	–	–
CC(C)OC(=O)NNc1cc(Cl)ccc1Cl	–	> 100 µM	–	> 100 µM	–	> 100 µM	–	> 100 µM	–	> 100 µM	–	> 100 µM	–	–
COc1cc2c(cc1O)C1Cc3ccc(OC)c(O)c3C(C2)N1C (stereo not given)	–	> 100 µM	–	> 100 µM	–	> 100 µM	–	> 100 µM	–	> 100 µM	–	> 100 µM	–	–
CC(C)N=c1cc2n(-c3ccc(Cl)cc3)c3ccccc3nc-2cc1Nc1ccc(Cl)cc1	–	–	1210 nM	2.76 µM	> 50 µM	> 50 µM	920 nM and 2740 nM	> 100 µM	0.586 µM and 0.296 µM	> 50 µM	1170 nM and 1410 nM	4.21 µM and 5.03 µM	2480 nM	> 100 µM
COc1ccc(-c2ccc(/C=N/n3c(C)n[nH]c3=S)o2)c([N+](=O)[O-])c1	> 100 µM	> 100 µM	> 100000 nM	> 100 µM	> 100 µM	> 100 µM	> 100000 nM	> 100 µM	> 100 µM	> 100 µM	> 100000 nM	> 100 µM	–	–
COc1cccc(/C(COc2ccc3c(c2)oc(=O)c2cc(OC)ccc23)=N/O)c1	14.5 µM	> 100 µM	4180 nM	> 100 µM	4.28 µM	> 100 µM	14200 nM	> 100 µM	3.8 µM	> 100 µM	4250 nM	> 100 µM	–	–
C[C@]12CC[C@@H]3c4ccc(O)cc4CC[C@H]3[C@@H]1CC[C@@H]2NS(=O)(=O)c1cccc(F)c1	3.88 µM	19.1 µM	–	–	4.81 µM	17.8 µM	2350 nM	6.39 µM	5.42 µM	21.8 µM	1850 nM	3.61 µM	2350 nM	8.28 µM
N#C/C(=C/N1CCN(C(=O)c2ccco2)C1=S)C(=O)c1ccccc1	–	–	18200 nM	57.2 µM	28 µM	> 100 µM	8640 nM	25 µM	19.4 µM	70.7 µM	23200 nM	> 100 µM	2840 nM	> 100 µM
Cc1ccc(S(=O)(=O)NCCNc2nccc(-c3c(-c4ccc(F)cc4)nc4sccn34)n2)cc1	7.7 µM	75.5 µM	–	–	–	–	4780 nM	> 100 µM	3.09 µM	> 100 µM	–	–	–	–
CC(=O)/C=C/c1ccc(C#Cc2ccccc2)s1	23.9 µM	56.3 µM	15500 nM	29.6 µM	15.5 µM	28.8 µM	17100 nM	31.4 µM	18.3 µM	32.2 µM	16900 nM	31 µM	–	–
COc1ccc2c(O)cc3c(c2c1)[C@H](CCl)CN3C(=O)c1cc2cc(NC(=O)CCN3CCOCC3)ccc2[se]1	–	–	< 1 nM	> 10 µM	< 0.001 µM	< 0.001 µM	< 1 nM	0.0334 µM	< 0.001 µM	1.36 µM	< 1 nM	> 10 µM	< 1 nM	> 10 µM
